From US5595983A, “Substituted piperazine 2-carboxylic acids useful in the treatment of central nervous system disorders” (British Technology Group Limited, priority 1984, dated 1997)
Where two headings read alike, the source gives them in different places.

Columns and labels:
[1] = tested on: motoneurones in the spinal cord; assay: Depression of monosynaptic (MS) and polysynaptic (PS) excitation of motoneurones in isolated hemisected spinal cord, elicited by dorsal root stimulation; format: cell-based, rat; settings: for inhibition at 500 µM: test conc. 500 μM; for inhibition at 100 µM: test conc. 100 μM
Source text: To evaluate actions of substances at amino acid receptors on nerve cells (neurones), the substances may be tested on spinal cord neurones, which have similar characteristics to nerve cells in the brain.
^1 Monosynaptic (MS) and polysynaptic (PS) excitation of motoneurones
in the spinal cord from 4-8 day old rats was elicited by electrical
stimulation of a dorsal root and recorded from the corresponding ventral
root. Figures relate to the depression of the magnitude of the two
components as measured respectively from oscilloscope traces and chart

[2] = tested on: 3-mercaptopropionate-induced convulsions; assay: Anticonvulsant activity against 3-mercaptopropionate-induced convulsions in mice; format: in vivo; settings: for Anti-convulsant Activity (mice): relative anticonvulsant potency: mice injected with 3-MP 100 mg/kg, 3-MP and phosphonates subcutaneously, relative to AP7 = 1.0
Method: ^2 Relative anticonvulsant potencies of substances in mice injected
with 3mercaptopropionic acid (3MP), 100 mg/kg; 3MP and the phosphonates

neuronal NMDA receptors = assay: Relative potency as antagonists of NMDA-induced motoneuronal depolarization in spinal cord of 4-day-old rat; format: cell-based; settings: 4-day-old rat spinal cord; bath administration; relative to AP5 = 1.0 (higher = more potent)
Source text: (§1) ^1 Relative potencies of substances as antagonists of NMDAinduced
(§2) motoneuronal depolarization and as depressants of spontaneous and dorsal
(§3) rootevoked ventral root synaptic potentials in spinal cord of 4day-old
(§4) rat; bath administration of drugs.
(§5) 1 Relative potencies of substances as antagonists of NMDA-induced motoneuronal depolarization and as depressants of spontaneous and dorsal root-evoked ventral root synaptic potentials in spinal cord of 4-day-old rat; bath administration of drugs.

[3] = tested on: ventral root synaptic potentials in spinal cord; assay: Relative potency as depressants of spontaneous and dorsal root-evoked ventral root synaptic potentials in spinal cord of 4-day-old rat; format: cell-based; settings: 4-day-old rat spinal cord, bath administration, relative to AP5 = 1.0
Source text: as §1, §2, §3, §4, §5

[4] = tested on: N-methyl-D-aspartate (NMDA) receptors; assay: Reversal of NMDA-induced motoneuronal depolarization, isolated 4-8 day old rat spinal cord; format: cell-based; settings: Table 2
kainate (K) receptors = assay: Reversal of kainate-induced motoneuronal depolarization, isolated 4-8 day old rat spinal cord; format: cell-based; settings: Table 2
[5] = tested on: quisqualate (Q) receptors; assay: Reversal of quisqualate-induced motoneuronal depolarization, isolated 4-8 day old rat spinal cord; format: cell-based; settings: Table 2
[6] = monosynaptic component, 4-8 day old rat spinal cord, read-out: Synaptic Excitation Percent depression MS
[7] = polysynaptic component, 4-8 day old rat spinal cord, read-out: Synaptic Excitation Percent depression PS

`NC(CCCP(=O)(O)O)C(=O)O` (racemic) [AP5, 2-amino-5-phosphonopentanoic acid, reference compound] was tested, and the inhibition at 2 µM ([1]; polysynaptic component, test conc. 2 μM, 4-8 day old rat spinal cord, read-out: Synaptic Excitation Percent depression PS) was 27% and the “Anti-convulsant Activity (mice): relative anticonvulsant potency” value [2] was 0.1.
For `NC(CCCCCP(=O)(O)O)C(=O)O` (racemic) [AP7, 2-amino-7-phosphonoheptanoic acid, reference compound], the inhibition at 3 µM ([1]; polysynaptic component, test conc. 3 μM, 4-8 day old rat spinal cord, read-out: Synaptic Excitation Percent depression PS) was 28%, the “Depression of NMDA-induced excitation in rat spinal cord: relative potency (NMDA)” value (neuronal NMDA receptors) was 0.75 and the “Depression of synaptic excitation in rat spinal cord: relative potency (Synaptic)” value [3] was 0.75.
`O=C(O)C1CN(CCCP(=O)(O)O)CCN1` (racemic) [CPP, 3-((±)-2-carboxypiperazin-4-yl)propyl-1-phosphonic acid] was tested, and the “Potency as antagonist of polysynaptic spinal excitation compared with AP5 and AP7” value ([1]; Table 2) was “more potent”, the inhibition at 0.5 µM ([1]; polysynaptic component, test conc. 0.5 μM (printed 0 · 5), 4-8 day old rat spinal cord, read-out: Synaptic Excitation Percent depression PS) was 28% and the “Potency as antagonist of NMDA compared with AP5 and AP7” value [4] was “more potent”. For the same compound, the “Depression of NMDA-induced excitation in rat spinal cord: relative potency (NMDA)” value (neuronal NMDA receptors) was 6, the “Depression of synaptic excitation in rat spinal cord: relative potency (Synaptic)” value [3] was 4 and the “Anticonvulsant activity compared with AP7” value ([2]; 3-mercaptopropionate-induced convulsions in mice, from Table 3) was “significantly higher anticonvulsant activity than AP7”. For the same compound, the “Anti-convulsant Activity (mice): relative anticonvulsant potency” value [2] was 2.5-5.0.
Compound `O=C(O)C1CN(CCCS(=O)(=O)O)CCN1` (racemic) [CPS, 3-(±)-2-carboxypiperazin-4-yl)-propane-1-sulphonic acid] has an inhibition at 500 µM [1, 6] of 6% and an inhibition at 500 µM [1, 7] of 32%.
`O=C(O)C1NCCN(C(=O)c2ccc(Br)cc2)C1C(=O)O` (centres unmarked) [BBP, 4-(4-bromobenzoyl)-piperazine-2,3-dicarboxylic acid] was tested, and the “Potency as depressant of monosynaptic excitation compared with γDGG” value ([1]; Table 2) was “more potent as a depressant of monosynaptic excitation”, the inhibition at 100 µM [1, 6] was 24% and the inhibition at 100 µM [1, 7] was 8%. The “Potency as antagonist of kainate-induced depolarizations compared with γDGG” value (kainate (K) receptors) was “more potent antagonist” and the “Potency as antagonist of quisqualate-induced depolarizations compared with γDGG” value [5] was “more potent antagonist”.
`N[C@H](CCC(=O)NCC(=O)O)C(=O)O` [γDGG, γ-D-glutamylglycine, reference compound] gave an inhibition at 700 µM ([1]; monosynaptic component, test conc. 700 μM, 4-8 day old rat spinal cord, read-out: Synaptic Excitation Percent depression MS) of 24%.
